Values of other authors, collected in patent publication US20030198597A1, “Novel macrocyclic activatible magnetic resonance imaging contrast agents” (priority 2002, published 2003).

Conditions: thermodynamic stability of the Gd3+ chelate complex; background statement

Compound	stability constant (K) / formation constant, logK
O=C([O-])CN(CCN(CC(=O)[O-])CC(=O)[O-])CCN(CC(=O)[O-])CC(=O)[O-].[Gd+3] [Gd(DTPA)^2−]	22.4
O=C([O-])CN1CCN(CC(=O)[O-])CCN(CC(=O)[O-])CCN(CC(=O)[O-])CC1.[Gd+3] [Gd-DOTA]	28.5
